In brackets after ≈: the same amount, converted by molar mass.
What was measured:
[1] = target: T1, Replicase polyprotein 1ab (Severe acute respiratory syndrome coronavirus 2, UniProt P0DTD1); assay: Inhibition of C-terminal His-tagged SARS-CoV-2 PLpro BetaCoV/Wuhan/WIV04/2019 strain (1564 to 1876 residues) expressed in Escherichia coli BL21(DE3) using FRET substrate measured after 3 hrs by enzymatic assay
SARS-CoV-2 [2] = assay: Antiviral activity against SARS-CoV-2 infected in human Caco-2 cells expressing hACE2 assessed as reduction in virus replication incubated for 48 hrs by Western blot analysis; format: functional, organism-based; details: Severe acute respiratory syndrome coronavirus 2, Caco-2, 48 h
[3] = Inhibition of SARS-CoV PLpro using Z-Arg-Leu-Arg-Gly-Gly-AMC acetate as substrate by fluorometric assay; design: species or system Severe acute respiratory syndrome-related coronavirus
SARS-CoV-2 [4] = assay: Antiviral activity against SARS-CoV-2 infected in human Caco-2 cells expressing hACE2 assessed as reduction in virus replication; format: functional, organism-based; details: Severe acute respiratory syndrome coronavirus 2, Caco-2
[5] = Cytotoxicity against African green monkey Vero E6 cells assessed as reduction in cell viability; format: toxicity, cell-based, Vero C1008; details: chlorocebus sabaeus
SARS-CoV-2 [6] = assay: Antiviral activity against SARS-CoV-2 infected in African green monkey Vero E6 cells assessed as reduction in viral replication at MOI of 0.5 incubated for 23 hrs by plaque assay; format: functional, organism-based; details: Severe acute respiratory syndrome coronavirus 2, Vero C1008, 23 h
Human rhinovirus sp. = assay: Antiviral activity against HRV infected in human HeLa cells assessed as inhibition in virus replication by plaque assay; format: functional, organism-based
[7] = target: T1, Replicase polyprotein 1ab; assay: Inhibition of SARS-CoV-2 PLpro
[8] = Inhibition of SARS-CoV PLpro (1541 to 1855 residues) using RLRGG-AMC as substrate preincubated for 5 mins followed by substrate addition measured after 6 mins by fluorescence based assay; design: species or system Severe acute respiratory syndrome-related coronavirus

COc1cc(O)ccc1CN(C)[C@H](C)c1cccc2ccccc12 gave an IC50 [1] of 0.58 µM.
In the case of C[C@H](c1cccc2ccccc12)N1CCC(C(=O)NCc2cccc(NC(=O)N3CCN(C)CC3)c2)CC1, the EC50 (SARS-CoV-2 [2]) is reported as 0.6 µM.
In the case of CNS(=O)(=O)c1ccc(C)c(C(=O)N[C@H](C)c2cccc3ccccc23)c1, the IC50 [3] is reported as 4 µM.
For C[C@H](c1cccc2ccccc12)N1Cc2ccc(N)cc2C1, the IC50 [3] was 4.9 µM.
With C[C@H](c1cccc2ccccc12)N(C)Cc1ccc(O)cc1 the EC50 (SARS-CoV-2 [4]) was 8.32 µM.
In the case of Cc1ccc(N)cc1C(=O)N[C@H](C)c1cccc2ccccc12, the EC50 (SARS-CoV-2 [4]) is reported as 25.1 µM.
C[C@H](c1cccc2ccccc12)N1CCC(C(=O)NCc2cc(F)cc(NC(=O)CN(C)C)c2)CC1 gave an EC50 (SARS-CoV-2 [2]) of 0.22 µM.
Cc1cc(N)ccc1C(=O)N[C@H](C)c1cccc2ccccc12 gave a CC50 [5] greater than 500 µM, an EC50 (SARS-CoV-2 [6]) of 15.8 µM and an IC50 [3] of 1.2 µM.
With C[C@H](c1cccc2ccccc12)N1Cc2ccccc2C1 the CC50 [5] was 442 µM, the EC50 (SARS-CoV-2 [6]) was 7.85 µM and the IC50 [3] was 2.9 µM.
For Cc1ccc(N(C)C)cc1C(=O)N[C@H](C)c1cccc2ccccc12, the IC50 [3] was 4 µM.
With C[C@H](c1cccc2ccccc12)N1Cc2ccc(O)cc2C1 the IC50 [3] was 4.5 µM.
C[C@H](c1cccc2ccccc12)N1CCC(C(=O)NCc2cc(F)cc(NC(=O)N3CCN(C)CC3)c2)CC1 showed an EC50 (SARS-CoV-2 [2]) of 0.18 µM.
C[C@@H](NC(=O)c1ccccc1Cl)c1cccc2ccccc12 gave a CC50 [5] of 376 µM, an EC50 (SARS-CoV-2 [6]) of 1.77 µM and an IC50 [3] of 6.5 µM.
Compound CCOc1cc(O)c(C(=O)NCc2ccc(OC)cc2)c(OC)c1 has an IC50 (Human rhinovirus sp.) of 0.014 µg/mL (≈ 0.0422 µM).
Cc1ccsc1C(=O)N[C@H](C)c1cccc2ccccc12 gave a CC50 [5] greater than 500 µM, an EC50 (SARS-CoV-2 [6]) of 4.74 µM and an IC50 [3] of 14 µM.
Cc1cc(NS(C)(=O)=O)ccc1C(=O)N[C@H](C)c1cccc2ccccc12 gave an IC50 [3] of 4.8 µM.
For Cc1ccc(NC2CNC2)cc1C(=O)N[C@H](C)c1cccc(-c2ccc(CNC[C@H]3CCCO3)s2)c1, the IC50 [7] was 0.76 µM.
Work on COc1ccc(CNC(=O)C2CCN(Cc3cccc4ccccc34)CC2)cc1 yielded an IC50 [8] of 59.2 µM.
Compound CCOc1cc(O)c(C(=O)NCc2ccc(NC)cc2)c(OC)c1 has an IC50 (Human rhinovirus sp.) of 0.022 µg/mL (≈ 0.0666 µM).
CCOc1cc(O)c(C(=O)/C=C/c2ccc(OC)cc2)c(OC)c1 gave an IC50 (Human rhinovirus sp.) of 0.045 µg/mL (≈ 0.137 µM).
Cc1ccc(N)cc1CN(C)[C@H](C)c1cccc2ccccc12 gave an IC50 [1] of 0.99 µM and an EC50 (SARS-CoV-2 [4]) of 8.89 µM.
Compound COc1ccc(CNC(=O)c2c(O)cc(OCC=C(C)C)cc2OC)cc1 has an IC50 (Human rhinovirus sp.) of 0.0072 µg/mL (≈ 0.0194 µM).
